# Data taken from patent EP0076478A1, “Linear kinetic determination of bicarbonate in body fluids” (BOEHRINGER MANNHEIM CORPORATION, priority 1981, dated 1983).
# Columns and labels:
# Assay type in all cases: biochemical
# LDH = assay: Inhibition of reaction III (oxidation of NADH by pyruvate, catalysed by serum LDH) by oxamate; conditions: for NADH oxidized: 10 minutes, 340 nm, 37°C
# Procedure: Using the same materials and methodology of the end-point determination described in Example III, the effectiveness of oxamate as an inhibitor of reaction III was determined. First, reaction III was followed by […] of oxamate to serum.with normal and supranormal LDH activities up to 2000 U/1 (one U/1 is an enzyme activity unit which catalyzes the transformation of one micromole per liter of pyruvate per minute at 37°C). In order to magnify the spectrophotometric signal, the sample volume was increased from 7.5 microliters to 50 microliters. The oxidation of NADH was followed for 10 minutes at 340 nm and 37°C, and the concentration of NADH oxidized was calculated from the change in absorbance over the 10 minute period.
# PEPC (wheat germ) = assay: Separate enzyme assay of PEPC in the presence of varying amounts of oxamate; conditions: for PEPC % Activity: average of three replicates
# MDH (porcine heart) = biological target: T1, MDH (porcine heart) (Sus scrofa, UniProt P00346); assay: Separate enzyme assay of MDH in the presence of varying amounts of oxamate
# T1 construct: purchased Boehringer Mannheim Corporation, Indianapolis, Indiana
# T1 sequence (P00346 25-338): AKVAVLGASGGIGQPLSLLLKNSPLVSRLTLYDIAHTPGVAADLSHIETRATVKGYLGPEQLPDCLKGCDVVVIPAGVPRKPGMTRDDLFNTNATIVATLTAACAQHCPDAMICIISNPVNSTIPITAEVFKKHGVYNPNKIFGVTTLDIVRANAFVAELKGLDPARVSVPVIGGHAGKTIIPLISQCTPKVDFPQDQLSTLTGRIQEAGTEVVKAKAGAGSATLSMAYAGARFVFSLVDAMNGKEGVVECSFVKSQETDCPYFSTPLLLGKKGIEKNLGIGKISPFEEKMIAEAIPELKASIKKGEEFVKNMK
# [1] = concentrations of oxamate up to 40 mmol/l
smiles,measurement,setting,value
"NC(=O)C(=O)[O-].[Na+] [oxamate, sodium oxamate]",NADH oxidized,"LDH; 2.5 mmol/l oxamate, serum LDH 282 U/l, 2 mmol/l pyruvate added",0 µmol/L
same,NADH oxidized,"LDH; 2.5 mmol/l oxamate, serum LDH 334 U/l, 2 mmol/l pyruvate added",1.3 µmol/L
same,NADH oxidized,"LDH; 2.5 mmol/l oxamate, serum LDH 340 U/l, 2 mmol/l pyruvate added",1.3 µmol/L
same,NADH oxidized,"LDH; 2.5 mmol/l oxamate, serum LDH 402 U/l, 2 mmol/l pyruvate added",0 µmol/L
same,NADH oxidized,"LDH; 2.5 mmol/l oxamate, serum LDH 508 U/l, 2 mmol/l pyruvate added",3.5 µmol/L
same,NADH oxidized,"LDH; 2.5 mmol/l oxamate, serum LDH 600 U/l, 2 mmol/l pyruvate added",2.6 µmol/L
same,NADH oxidized,"LDH; 2.5 mmol/l oxamate, serum LDH 1200 U/l, 2 mmol/l pyruvate added",7.7 µmol/L
same,NADH oxidized,"LDH; 2.5 mmol/l oxamate, serum LDH 1470 U/l, sample not spiked with pyruvate",1.0 µmol/L
same,NADH oxidized,"LDH; 2.5 mmol/l oxamate, serum LDH normal (average of 10 normal sera), 2 mmol/l pyruvate added",1.4 µmol/L
same,NADH oxidized,"LDH; 5 mmol/l oxamate, serum LDH 282 U/l, 2 mmol/l pyruvate added",0 µmol/L
same,NADH oxidized,"LDH; 5 mmol/l oxamate, serum LDH 334 U/l, 2 mmol/l pyruvate added",0.3 µmol/L
same,NADH oxidized,"LDH; 5 mmol/l oxamate, serum LDH 340 U/l, 2 mmol/l pyruvate added",0 µmol/L
same,NADH oxidized,"LDH; 5 mmol/l oxamate, serum LDH 402 U/l, 2 mmol/l pyruvate added",0 µmol/L
same,NADH oxidized,"LDH; 5 mmol/l oxamate, serum LDH 508 U/l, 2 mmol/l pyruvate added",0.3 µmol/L
same,NADH oxidized,"LDH; 5 mmol/l oxamate, serum LDH 600 U/l, 2 mmol/l pyruvate added",0.2 µmol/L
same,NADH oxidized,"LDH; 5 mmol/l oxamate, serum LDH 1200 U/l, 2 mmol/l pyruvate added",0.9 µmol/L
same,NADH oxidized,"LDH; 5 mmol/l oxamate, serum LDH 1470 U/l, sample not spiked with pyruvate",0 µmol/L
same,NADH oxidized,"LDH; 5 mmol/l oxamate, serum LDH normal (average of 10 normal sera), 2 mmol/l pyruvate added",0.5 µmol/L
same,NADH oxidized,"LDH; 10 mmol/l oxamate, serum LDH 282 U/l, 2 mmol/l pyruvate added",0 µmol/L
same,NADH oxidized,"LDH; 10 mmol/l oxamate, serum LDH 334 U/l, 2 mmol/l pyruvate added",0 µmol/L
same,NADH oxidized,"LDH; 10 mmol/l oxamate, serum LDH 340 U/l, 2 mmol/l pyruvate added",0 µmol/L
same,NADH oxidized,"LDH; 10 mmol/l oxamate, serum LDH 402 U/l, 2 mmol/l pyruvate added",0 µmol/L
same,NADH oxidized,"LDH; 10 mmol/l oxamate, serum LDH 508 U/l, 2 mmol/l pyruvate added",0.1 µmol/L
same,NADH oxidized,"LDH; 10 mmol/l oxamate, serum LDH 600 U/l, 2 mmol/l pyruvate added",0 µmol/L
same,NADH oxidized,"LDH; 10 mmol/l oxamate, serum LDH 1200 U/l, 2 mmol/l pyruvate added",0.3 µmol/L
same,NADH oxidized,"LDH; 10 mmol/l oxamate, serum LDH 1470 U/l, sample not spiked with pyruvate",0 µmol/L
same,NADH oxidized,"LDH; 10 mmol/l oxamate, serum LDH 2000 U/l, 2 mmol/l pyruvate added",0 µmol/L
same,NADH oxidized,"LDH; 10 mmol/l oxamate, serum LDH normal (average of 10 normal sera), 2 mmol/l pyruvate added",0.3 µmol/L
same,NADH oxidized,"LDH; 20 mmol/l oxamate, serum LDH 282 U/l, 2 mmol/l pyruvate added",0 µmol/L
same,NADH oxidized,"LDH; 20 mmol/l oxamate, serum LDH 334 U/l, 2 mmol/l pyruvate added",0 µmol/L
same,NADH oxidized,"LDH; 20 mmol/l oxamate, serum LDH 340 U/l, 2 mmol/l pyruvate added",0 µmol/L
same,NADH oxidized,"LDH; 20 mmol/l oxamate, serum LDH 402 U/l, 2 mmol/l pyruvate added",0 µmol/L
same,NADH oxidized,"LDH; 20 mmol/l oxamate, serum LDH 508 U/l, 2 mmol/l pyruvate added",0 µmol/L
same,NADH oxidized,"LDH; 20 mmol/l oxamate, serum LDH 600 U/l, 2 mmol/l pyruvate added",0 µmol/L
same,NADH oxidized,"LDH; 20 mmol/l oxamate, serum LDH 1200 U/l, 2 mmol/l pyruvate added",0 µmol/L
same,NADH oxidized,"LDH; 20 mmol/l oxamate, serum LDH 1470 U/l, sample not spiked with pyruvate",0 µmol/L
same,NADH oxidized,"LDH; 20 mmol/l oxamate, serum LDH 2000 U/l, 2 mmol/l pyruvate added",0 µmol/L
same,NADH oxidized,"LDH; 20 mmol/l oxamate, serum LDH normal (average of 10 normal sera), 2 mmol/l pyruvate added",0 µmol/L
same,LDH activity,LDH; oxamate concentration of 10-20 mmol/l,completely inhibited
same,PEPC % Activity,PEPC (wheat germ); Oxamate 5 mmol/l,102 ± 2%
same,PEPC % Activity,PEPC (wheat germ); Oxamate 10 mmol/l,95 ± 11%
same,PEPC % Activity,PEPC (wheat germ); Oxamate 20 mmol/l,103 ± 1%
same,PEPC % Activity,PEPC (wheat germ); Oxamate 40 mmol/l,99 ± 2%
same,PEPC % Activity,PEPC (wheat germ); Oxamate 80 mmol/l,86 ± 4%
same,effect on PEPC,PEPC (wheat germ); [1],no effect
same,effect on PEPC,PEPC (wheat germ); varying amounts of oxamate,no significant effect
same,activity at 5000 µM,"MDH (porcine heart); Oxamate 5 mmol/l, average of three replicates",102 ± 2%
same,activity at 10000 µM,"MDH (porcine heart); Oxamate 10 mmol/l, average of three replicates",102 ± 2%
same,activity at 20000 µM,"MDH (porcine heart); Oxamate 20 mmol/l, average of three replicates",99 ± 1%
same,activity at 40000 µM,"MDH (porcine heart); Oxamate 40 mmol/l, average of three replicates",98 ± 5%
same,activity at 80000 µM,"MDH (porcine heart); Oxamate 80 mmol/l, average of three replicates",92 ± 2%
same,effect on MDH,MDH (porcine heart); [1],no effect
same,effect on MDH,MDH (porcine heart); varying amounts of oxamate,no significant effect
